Data on two molecules can be found in patent US20240139280A1, “USE OF HIF-1-ALPHA INHIBITORS IN CANCER IMMUNOTHERAPY” (ONCOC4, INC., priority 2021, published 2024).

The test system of series [1] is PD-L1 expression in E0771 cells. The class given is cell-based, murine.
The test system of series [2] is core HRE motif EGFP reporter in 4T1-HRE-EGFP cells. Type of series: cell-based, murine.
Series [3] concerns intestinal tissues. The settings on record: in vivo.
Description: (§1) Experimental design for GI-irAE induction by Ipilimumab, with or without additional therapies. 10-day old CTLA4h/h mice received 0.1 mg of Ipilimumab on days 10, 13, 16, and 19 after birth to induce the GI-irAE phenotype, measured by FITC-dextran assay on day 32. On day 33, the mice were sacrificed for histological and immunofluorescent analysis of intestinal tissues, and flow cytometry, etc. […] Aggregate data from 4 experiments are presented. […] Starting on day 10 after birth, the mice began receiving treatment with vehicle (n=33), echinomycin (n=27), Ipilimumab (n=33), Ipilimumab+echinomycin (n=26), Ipilimumab+RMP1-14 (n=27), Ipilimumab+echinomycin+RMP1-14 (n=28), or Ipilimumab+echinomycin+XMG1.2 (n=15). Echinomycin (10 μg/kg), Ipilimumab (0.1 mg/mouse/injection), RMP1-14 (0.2 mg/mouse/injection), and XMG1.2 (0.2 mg/mouse/injection). Vehicle or echinomycin (10 μg/kg) were given once every three days for 8 doses, and mAbs (0.1 mg/mo. for Ipilimumab; 0.2 mg/mo. for RMP1-14 and XMG1.2) once every three days for 4 doses. Data collection was performed as described in (FIG. 8A). […] Serum FITC-dextran intensity shown as mean±SEM for individual mice pooled from 3 independent experiments. […] Statistics were determined by unpaired t tests (two-tailed) for group means. […] Representative H&E images from intestines of Ipilimumab-treated mice additionally treated with echinomycin (panel i), RMP1-14 (panels ii-iv), echinomycin+RMP1-14 (panels v-vi), or echinomycin+XMG1.2 (panels vii-viii). […] Representative immunofluorescence images showing relative expression of PD-L1 in jejunum of mice from different treatment groups.
(§2) Therefore, we used intestinal permeability to orally administrated FITC-dextran and histology as the readout for irAE (FIG. 8A).
For series [4], the system named is intestinal tissues. The experiment in a line: Ipilimumab-induced GI-irAE in human CTLA4 knockin mice (FITC-dextran, histology, PD-L1). The settings on record: Ipilimumab 0.1 mg/mouse/injection; echinomycin 10 μg/kg added to Ipilimumab.
Description: as §1, §2

In the case of `[Cl-].[Cl-].[Co+2]` [CoCl2], the PD-L1 expression result in series [1] is “further upregulated PD-L1”. Besides, in series [2], the “EGFP reporter fluorescence activity” value is recorded as “marked increase in EGFP reporter fluorescence activity”.

For “Ipilimumab: Recombinant anti-CTLA-4 antibody Ipilimumab provided by Lakepharma Inc.”, the “intestinal inflammation / pathology (histological analysis)” value in the series with intestinal tissues [3] was “induced intestinal inflammation”. The “PD-L1 expression in the intestines” value in the series with intestinal tissues [4] was “elevated PD-L1 expression”.
